According to patent US6376224B1, “Pharmaceutical compositions for eliminating membrane-mediated cell resistance” (Deutsches Krebsforschungszentrum Stiftung des Offentlichen …, priority 1997, dated 2002):
Like-named read-outs stand apart in the source and are kept apart here.

What was measured:
[1] = system: KB cells (human carcinoma cells); assay: Growth inhibition of chemosensitive KB cells after drug incubation and laser exposure; format: cell-based; details: for IC50: KB (w.t.), 10 min incubation, 3 days culture, read-out: 50% inhibitory concentration (cell growth)
Procedure: (§1) In addition, chemosensitive KB cells (human carcinoma cells) were compared with their chemoresistant KBC5-8 variant. The multi-chemoresistance of the latter is also P-glycoprotein-mediated and was induced experimentally by colchicine addition to the cell culture medium. Before the experiment started, the human carcinoma cells were typsinized and suspended in fresh cell culture medium.
(§2) Then, the cells were incubated with graded concentrations of vinblastin and napavin (photoactivity-labeled cytostatic agent). […] The mouse ascites cells were incubated with these pharmacetuical agents for five minutes. The human tumor cells were incubated for ten minutes. Then, the cell suspensions were transferred by pipetting into plastic dishes or trays and exposed using an argon laser (457.8 nm, 48 mW/cm^2) at room temperature for 1 minute. Thereafter, the cells were washed with fresh cell culture medium twice and cultured in 24-well multidishes or multitrays for three days. At the end of the experiment, cell growth was measured and the 50% inhibitory concentration of the cytostatic agents vinblastin and napavin was determined graphically as usual.

[2] = system: KBC5-8 variant (P-glycoprotein-mediated multi-chemoresistance); assay: Growth inhibition of multi-chemoresistant KBC5-8 cells after drug incubation and laser exposure; format: cell-based, human; details: read-out: 50% inhibitory concentration (cell growth)
Procedure: as §1, §2

[3] = system: mouse ascites cells (strain HD34K); assay: Growth inhibition of chemosensitive mouse ascites cells HD34K after drug incubation and laser exposure; format: cell-based; details: HD34K (w.t.), 5 min incubation, argon laser 1 min, 3 days culture; for IC50: read-out: 50% inhibitory concentration (cell growth)
Procedure: (§3) Chemosensitive mouse ascites cells (strain HD34K) were compared with their variant (strain SR) which distinuishes itself by P-glycoprotein-mediated multi-chemoresistance. The chemoresistance of the SR cells developed spontaneously. The mouse ascites cells were suspended in fresh cell culture medium before the experiment started.
(§4) All of the experiments were carried out under flavin-protecting test conditions (Granzow et al., Cancer Res. 55, 4837-4843, (1995)). Freshly prepared cell suspensions were previously incubated at 36.5° C. for 15 minutes. Then, the cells were incubated with graded concentrations of vinblastin and napavin (photoactivity-labeled cytostatic agent). […] The mouse ascites cells were incubated with these pharmacetuical agents for five minutes. The human tumor cells were incubated for ten minutes. Then, the cell suspensions were transferred by pipetting into plastic dishes or trays and exposed using an argon laser (457.8 nm, 48 mW/cm^2) at room temperature for 1 minute. Thereafter, the cells were washed with fresh cell culture medium twice and cultured in 24-well multidishes or multitrays for three days. At the end of the experiment, cell growth was measured and the 50% inhibitory concentration of the cytostatic agents vinblastin and napavin was determined graphically as usual.

[4] = system: mouse ascites cells (strain SR, P-glycoprotein-mediated multi-chemoresistance); assay: Growth inhibition of multi-chemoresistant mouse ascites cells SR after drug incubation and laser exposure; format: cell-based; details: for IC50: read-out: 50% inhibitory concentration (cell growth); for 50% growth inhibition concentration in SR relative to wild-type (HD34K) concentration: absence of verapamil
Procedure: as §3, §4

[5] = no verapamil, argon laser 457.8 nm 1 min

In the case of `CC[C@]1(O)C[C@@H]2CN(CCc3c([nH]c4ccccc34)[C@@](C(=O)OC)(c3cc4c(cc3OC)N(C)[C@H]3[C@@](O)(C(=O)OC)[C@H](OC(C)=O)[C@]5(CC)C=CCN6CC[C@]43[C@@H]65)C2)C1` [VLB, vinblastin, reference compound], the IC50 ([1]; Homo sapiens, KB, + 1 μM verapamil, argon laser 1 min) is reported as 180 nM, the IC50 ([1]; Homo sapiens, KB, no verapamil, argon laser 457.8 nm 1 min) is reported as 100 to 200 nM and the IC50 [1, 5] is reported as 160 nM. For the same molecule, the IC50 ([2]; Homo sapiens) was 27000 nM, the “50% inhibitory concentration (cell growth)” value ([3]; + 1 μM verapamil) was “insignificantly higher” and the IC50 ([3]; Mus musculus, + 1 μM verapamil) was 750 nM. For the same molecule, the IC50 ([3]; Mus musculus, no verapamil) was 660 nM, the IC50 ([4]; Mus musculus) was 7000 nM and the “50% growth inhibition concentration in SR relative to wild-type (HD34K) concentration” value [4] was “about 10 times”.

With `COc1ccc(CCN(C)CCCC(C#N)(c2ccc(OC)c(OC)c2)C(C)C)cc1OC` (stereo not shown) [VPM, verapamil] the “Influence of verapamil on concentration required for 50% growth suppression” value ([1]; KB cells, vinblastin and napavin) was “no influence”.

With napavin the IC50 ([1]; + 1 μM verapamil, argon laser 1 min) was 150 nM, the IC50 [1, 5] was 160 nM and the IC50 ([2]; KBC5-8 (mdr), + 1 μM verapamil, 10 min incubation, argon laser 1 min, 3 days culture) was 1000 nM. For the same molecule, the IC50 ([2]; KBC5-8 (mdr), + 2 μM verapamil, 10 min incubation, argon laser 1 min, 3 days culture) was 350 nM, the IC50 ([2]; KBC5-8 (mdr), no verapamil, 10 min incubation, argon laser 1 min, 3 days culture) was 3800 nM and the “50% inhibitory concentration (cell growth)” value ([3]; + 1 μM verapamil) was “slightly less”. The IC50 ([3]; + 1 μM verapamil) was 330 nM, the IC50 ([3]; no verapamil, listed as napavin) was ~400 nM and the IC50 ([3]; no verapamil) was 430 nM. For the same molecule, the IC50 ([4]; SR (mdr), + 1 μM verapamil, 5 min incubation, argon laser 1 min, 3 days culture) was 900 nM, the IC50 ([4]; SR (mdr), + 2 μM verapamil, 5 min incubation, argon laser 1 min, 3 days culture) was 600 nM and the IC50 ([4]; SR (mdr), no verapamil, 5 min incubation, argon laser 1 min, 3 days culture) was 4750 nM. For the same molecule, the “50% growth inhibition concentration in SR relative to wild-type (HD34K) concentration” value [4] was 10 times, the “Inhibitory concentrations SR versus wild-type HD34K” value ([4]; with 1 μM verapamil) was “no longer differ significantly” and the “Inhibitory concentrations SR versus wild-type HD34K” value ([4]; with 2 μM verapamil) was “identical”.
